Test results: patent US20230124361A1, “SMALL MOLECULE STING ANTAGONISTS” (CURADEV PHARMA PVT. LTD., priority 2020, published 2023)

Each molecule was assayed against T1, STING (Homo sapiens, UniProt Q86WV6, G230A/H232R/R293Q/R71H) (assay: Reporter gene expression assay in THP1-Dual cells (IRF pathway Lucia luciferase, 2',3'-cGAMP stimulation)). Conditions: 10 min preincubation, 5 μM 2',3'-cGAMP, 20 hr, IRF reporter QUANTI-Luc, read-out: THP-1 (HAQ) Activity.
T1 construct: host or cells: THP1-Dual cells (human THP-1 monocyte line with Lucia/SEAP reporters)
T1 sequence (Q86WV6 whole entry R71H/G230A/H232R/R293Q): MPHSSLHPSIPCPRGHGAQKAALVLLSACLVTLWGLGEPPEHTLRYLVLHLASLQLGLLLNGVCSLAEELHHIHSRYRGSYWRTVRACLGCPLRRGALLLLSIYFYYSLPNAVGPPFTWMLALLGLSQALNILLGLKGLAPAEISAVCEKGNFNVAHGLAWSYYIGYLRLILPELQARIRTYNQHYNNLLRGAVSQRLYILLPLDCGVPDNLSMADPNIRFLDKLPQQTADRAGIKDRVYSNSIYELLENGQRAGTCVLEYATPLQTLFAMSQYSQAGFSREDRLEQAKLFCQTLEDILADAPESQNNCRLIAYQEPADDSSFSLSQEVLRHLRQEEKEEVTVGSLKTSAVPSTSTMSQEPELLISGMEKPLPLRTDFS
Type: cell-based
Method in brief: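 THP1-Dual cells preincubated 10 min with compound, then stimulated with 5 μM 2′,3′-cGAMP for 20 hr. Secreted Lucia luciferase (IRF reporter) measured in supernatant by luminescence; IC50 reported as ranges (A ≤1 μM, B >1–≤10 μM, C >10 μM).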
`COc1ccc(F)c(CN2C(=O)CSc3cc(NC(=O)Nc4ccc5cc[nH]c5c4)ccc32)c1Cl` [Example 124, l-(4-(2-chloro-6-fluoro-3-methoxybenzyl)-3-oxo-3,4-dihydro-2H-benzo[b][1, 4]thiazin-7-yl)-3-(1H-indol-6-yl)urea] gave an IC50 of no more than 1 µM.
`NC(=O)c1cc2c(cc1NC(=O)Nc1ccc3cc[nH]c3c1)N(Cc1ccccc1)CCO2` [Example 179, 6-(3-(1H-indol-6-yl)ureido)-4-benzyl-3,4-dihydro-2H-benzo[b][1, 4]oxazine-7-carboxamide] showed an IC50 of 1 to 10 µM.
`O=C(Nc1ccc2c(c1)OCC(=O)N2Cc1cccc(O)c1)Nc1ccc2cc[nH]c2c1` [Example 152, 1-(4-(3-hydroxybenzyl)-3-oxo-3,4-dihydro-2H-benzo[b][1, 4]oxazin-7-yl)-3-(1H-indol-6-yl)urea] showed an IC50 of 1 to 10 µM.
With `O=C(Nc1ccc2c(c1)OCC(=O)N2Cc1ccccc1O)Nc1ccc2cc[nH]c2c1` [Example 159, 1-(4-(2-hydroxybenzyl)-3-oxo-3,4-dihydro-2H-benzo [b][1, 4]oxazin-7-yl)-3-(1H-indol-6-yl)urea] the IC50 was 1 to 10 µM.
In the case of `O=C(Nc1ccc2c(c1)OCC(=O)N2Cc1ccc(OC(F)(F)F)c(Cl)c1)Nc1ccc2cc[nH]c2c1` [Example 107, 1-(4-(3-chloro-4-(trifluoromethoxy)benzyl)-3-oxo-3,4-dihydro-2H-benzo[b][1,4]oxazin-7-yl)-3-(1H-indol-6-yl)urea], the IC50 is reported as no more than 1 µM.
In the case of `O=C(Nc1ccc2c(c1)NCCO2)Nc1ccc2c(c1)N(Cc1ccccc1)C(=O)CS2` [Example 51, 1-(4-benzyl-3-oxo-3,4-dihydro-2H-benzo[b][1, 4]thiazin-6-yl)-3-(3,4-dihydro-2H-benzo[b][1, 4]oxazin-6-yl)urea], the IC50 is reported as 1 to 10 µM.
Molecule `O=C(Nc1ccc2c(c1)OCC(=O)N2Cc1ccc(CO)cc1)Nc1ccc2cc[nH]c2c1` [Example 153, 1-(4-(4-(hydroxymethyl)benzyl)-3-oxo-3,4-dihydro-2H-benzo[b][1, 4]oxazin-7-yl)-3-(1H-indol-6-yl)urea] has an IC50 greater than 10 µM.
`O=C(Nc1ccc2c(c1)N(CCN1CCCC1)CCS2)Nc1ccc2cc[nH]c2c1` [Example 68, 1-(1H-indol-6-yl)-3-(4-(2-(pyrrolidin-1-yl)ethyl)-3,4-dihydro-2H-benzo[b][1, 4]thiazin-6-yl)urea] was tested, and the IC50 was 1 to 10 µM.
With `O=C(Nc1ccc2c(c1)N(Cc1ccc(OC(F)(F)F)cc1F)CCO2)Nc1ccc2cc[nH]c2c1` [Example 174, 1-(4-(2-fluoro-4-(trifluoro-methoxy)benzyl)-3,4-dihydro-2H-benzo[b][1, 4]oxazin-6-yl)-3-(1H-indol-6-yl)urea] the IC50 was no more than 1 µM.
Work on `O=C(Nc1ccc2c(c1)OCC(=O)N2Cc1ccncn1)Nc1ccc2cc[nH]c2c1` [Example 160, 1-(1H-indol-6-yl)-3-(3-oxo-4-(pyrimidin-4-ylmethyl)-3,4-dihydro-2H-benzo[b][1, 4]oxazin-7-yl)urea] yielded an IC50 of 1 to 10 µM.
`O=C(Nc1ccc2c(c1)SCC(=O)N2Cc1c(F)cc(O)cc1F)Nc1ccc2cc[nH]c2c1` [Example 127, 1-(4-(2,6-difluoro-4-hydroxybenzyl)-3-oxo-3,4-dihydro-2H-benzo[b][1, 4]thiazin-7-yl)-3-(1H-indol-6-yl)urea] gave an IC50 of 1 to 10 µM.
`CN(C(=O)Nc1ccc2cc[nH]c2c1)c1ccc2c(c1)N(Cc1ccccc1)C(=O)CS2` [Example 31, 1-(4-benzyl-3-oxo-3,4-dihydro-2H-benzo[b][1, 4]thiazin-6-yl)-3-(1H-indol-6-yl)-1-methylurea] gave an IC50 of 1 to 10 µM.
In the case of `O=C(Nc1ccc2c(c1)OCC(=O)N2Cc1ccc(-n2cncn2)cc1)Nc1ccc2cc[nH]c2c1` [Example 128, 1-(4-(4-(1H-1,2,4-triazol-1-yl)benzyl)-3-oxo-3,4-dihydro-2H-benzo[b][1, 4]oxazin-7-yl)-3-(1H-indol-6-yl)urea], the IC50 is reported as greater than 10 µM.
`NCC1COc2ccc(NC(=O)Nc3ccc4cc[nH]c4c3)cc2N1Cc1ccccc1` (stereo not drawn) [Example 82] was tested, and the IC50 was greater than 10 µM.
`O=C(Nc1ccc2c(c1)OCC(=O)N2Cc1cc(F)cc(F)c1)Nc1ccc2cc[nH]c2c1` [Example 105, 1-(4-(3,5-difluorobenzyl)-3-oxo-3,4-dihydro-2H-benzo[b][1,4]oxazin-7-yl)-3-(1H-indol-6-yl)urea] was tested, and the IC50 was no more than 1 µM.
